Patent US8106048B2, “Heterocyclic NF-κB inhibitors” (4SC AG, priority 2004, dated 2012)

The compounds below were run on A549-NF-κB-SEAP reporter cells (assay: Inhibition of NF-κB-induced inflammation: […] NINA Instant Assay, TNF-α stimulated SEAP reporter). Details: % inhibition classes.
Type: cell-based
Excerpt: For the determination of anti-inflammatory activity of the compounds the […]® NINA Instant Assay from Cell Culture Service GmBH was used. This assay is based on […] recombinant A549-NF-κB-SEAP reporter cells preceded in 96-well flat bottom plates. As the transfected reportergen for SEAP (secreted embryonic alkaline phosphatase) is under transcriptional control of a NF-κB-responsive element, the expression of this reporter is activated upon stimulation with TNF-α. SEAP secretion into the culture supernatant can be detected by the chemiluminescent substrate CSPD®. Test compounds that inhibit the NF-κB activation show reduced SEAP activity and reduced luminescent readout.
Following 18 h of reactivation at 37° C., 5% CO2 and 90% relative humidity, the cells were incubated with 0.01 up to 100 μM of test compound for 4.5 h before stimulation with 2 ng/ml TNF-α. After stimulation with TNF-α for 22 h endogenous phosphatases were inactivated and CSPD® substrate was supplied for 40 min. SEAP activity then was quantified by measuring luminescence as relative light units (RLU) using a Tecan Ultra reader. Each data point was recorded in quadruplicates and EC50 values were calculated via fitting function and the Microsoft Excel Solver.

Row | SMILES | Biological activity (inhibition in the NF-κB inflammation assay)
1 | COc1nc(OC)nc(N2CCN(C(=O)c3csc(C4CCNCC4)n3)CC2)n1 [compound 152] | ++ (“++” means 80-90%)
2 | COc1ccc(N2CCC(c3nc(C(=O)N4CCN(c5cccc(C(F)(F)F)c5)CC4)cs3)CC2)c(OC)c1 [compound 153] | + (“+” stands for 50-80% inhibition)
3 | O=C(c1csc(C2CCN(c3ccc(OC(F)(F)F)cc3)CC2)n1)N1CCN(c2cccc(C(F)(F)F)c2)CC1 [compound 154] | + (“+” stands for 50-80% inhibition)
4 | O=C(c1csc(C2CCN(c3ccc(C(F)(F)F)cc3)CC2)n1)N1CCN(c2cccc(C(F)(F)F)c2)CC1 [compound 155] | + (“+” stands for 50-80% inhibition)
5 | O=C(c1csc(C2CCN(c3ccc4c(c3)OCO4)CC2)n1)N1CCN(c2cccc(C(F)(F)F)c2)CC1 [compound 156] | + (“+” stands for 50-80% inhibition)
6 | O=C(c1csc(C2CCN(c3ccc4c(c3)OCCO4)CC2)n1)N1CCN(c2cccc(C(F)(F)F)c2)CC1 [compound 157] | + (“+” stands for 50-80% inhibition)
7 | COc1ccccc1N1CCC(c2nc(C(=O)N3CCN(c4cccc(C(F)(F)F)c4)CC3)cs2)CC1 [compound 158] | + (“+” stands for 50-80% inhibition)
8 | COc1ccc(N2CCC(c3nc(C(=O)N4CCN(c5cccc(C(F)(F)F)c5)CC4)cs3)CC2)cc1OC [compound 159] | + (“+” stands for 50-80% inhibition)
9 | O=C(Cc1ccc(F)cc1)N1CCC(c2nc(C(=O)N3CCc4cc(O)c(O)cc4C3)cs2)CC1 [compound 160] | + (“+” stands for 50-80% inhibition)
10 | COc1cc2c(cc1OC)CN(C(=O)c1csc(C3CCN(C(=O)Cc4ccc(F)cc4)CC3)n1)CC2 [compound 161] | + (“+” stands for 50-80% inhibition)
11 | O=C(Cc1ccc(F)cc1)N1CCC(c2nc(C(=O)N3CCc4ccccc43)cs2)CC1 [compound 162] | + (“+” stands for 50-80% inhibition)
12 | O=C(Cc1ccc(F)cc1)N1CCC(c2nc(C(=O)N3CCc4ccccc4C3)cs2)CC1 [compound 163] | + (“+” stands for 50-80% inhibition)
13 | COc1cc(N2CCC(c3nc(C(=O)N4CCN(c5cccc(C(F)(F)F)c5)CC4)cs3)CC2)nc(OC)n1 [compound 164] | ++ (“++” means 80-90%)
14 | O=C(c1csc(C2CCN(Cc3ccccc3Br)CC2)n1)N1CCN(c2cccc(C(F)(F)F)c2)CC1 [compound 165] | + (“+” stands for 50-80% inhibition)
15 | N#Cc1ccc(CN2CCC(c3nc(C(=O)N4CCN(c5cccc(C(F)(F)F)c5)CC4)cs3)CC2)cc1 [compound 166] | + (“+” stands for 50-80% inhibition)
16 | O=C(c1csc(C2CCN(Cc3ccc(-c4ccccc4)cc3)CC2)n1)N1CCN(c2cccc(C(F)(F)F)c2)CC1 [compound 167] | + (“+” stands for 50-80% inhibition)
17 | O=C(c1csc(C2CCN(Cc3c(F)cccc3F)CC2)n1)N1CCN(c2cccc(C(F)(F)F)c2)CC1 [compound 168] | + (“+” stands for 50-80% inhibition)
18 | O=C(c1csc(C2CCN(Cc3ccc(C(F)(F)F)cc3)CC2)n1)N1CCN(c2cccc(C(F)(F)F)c2)CC1 [compound 169] | + (“+” stands for 50-80% inhibition)
19 | O=C(c1csc(C2CCN(Cc3ccc(F)cc3)CC2)n1)N1CCN(c2cccc(C(F)(F)F)c2)CC1 [compound 170] | + (“+” stands for 50-80% inhibition)
20 | O=C(c1csc(C2CCN(Cc3ccc(F)cc3Cl)CC2)n1)N1CCN(c2cccc(C(F)(F)F)c2)CC1 [compound 171] | + (“+” stands for 50-80% inhibition)
21 | O=C(c1csc(C2CCN(Cc3ccc(OC(F)(F)F)cc3)CC2)n1)N1CCN(c2cccc(C(F)(F)F)c2)CC1 [compound 172] | + (“+” stands for 50-80% inhibition)
22 | COc1cccc(CN2CCC(c3nc(C(=O)N4CCN(c5cccc(C(F)(F)F)c5)CC4)cs3)CC2)c1 [compound 173] | + (“+” stands for 50-80% inhibition)
23 | O=C(c1csc(C2CCN(Cc3ccc(Br)cc3)CC2)n1)N1CCN(c2cccc(C(F)(F)F)c2)CC1 [compound 174] | + (“+” stands for 50-80% inhibition)

Row | SMILES | Biological activity (inhibition in the NF-κB inflammation assay)
24 | O=C(c1csc(C2CCN(Cc3cc(C(F)(F)F)cc(C(F)(F)F)c3)CC2)n1)N1CCN(c2cccc(C(F)(F)F)c2)CC1 [compound 175] | + (“+” stands for 50-80% inhibition)
25 | COc1nc(OC)nc(N2CCC(c3nc(C(=O)N4CCN(c5cccc(C(F)(F)F)c5)CC4)cs3)CC2)n1 [compound 176] | + (“+” stands for 50-80% inhibition)
26 | O=C(c1csc(C2CCN(Cc3ccccc3)CC2)n1)N1CCN(c2cccc(C(F)(F)F)c2)CC1 [compound 177] | + (“+” stands for 50-80% inhibition)
27 | COc1cccc(N2CCC(c3nc(C(=O)N4CCN(c5cccc(C(F)(F)F)c5)CC4)cs3)CC2)c1 [compound 178] | + (“+” stands for 50-80% inhibition)
28 | COC(=O)C1Cc2ccc(O)cc2CN1C(=O)c1csc(C2CCN(C(=O)Cc3ccc(F)cc3)CC2)n1 (stereo not shown) [compound 179] | + (“+” stands for 50-80% inhibition)
29 | O=C(Cc1ccc(F)cc1)N1CCC(c2nc(C(=O)N3CCN(c4ccccc4)CC3)cs2)CC1 [compound 180] | + (“+” stands for 50-80% inhibition)
30 | O=C(Cc1ccc(F)cc1)N1CCC(c2nc(C(=O)N3CCC(n4nnc5cc(C(F)(F)F)ccc54)CC3)cs2)CC1 [compound 181] | + (“+” stands for 50-80% inhibition)
31 | O=C(Cc1ccc(F)cc1)N1CCC(c2nc(C(=O)N3CCC(n4nnc5ccccc54)CC3)cs2)CC1 [compound 182] | + (“+” stands for 50-80% inhibition)
32 | O=C(O)c1cccnc1C(=O)N1CCC(c2nc(C(=O)N3CCN(c4cccc(C(F)(F)F)c4)CC3)cs2)CC1 [compound 183] | + (“+” stands for 50-80% inhibition)
33 | O=C(O)c1ccc(C(=O)O)c(C(=O)N2CCC(c3nc(C(=O)N4CCN(c5cccc(C(F)(F)F)c5)CC4)cs3)CC2)c1 [compound 184] | + (“+” stands for 50-80% inhibition)
34 | O=C(O)c1ccccc1C(=O)N1CCC(c2nc(C(=O)N3CCN(c4cccc(C(F)(F)F)c4)CC3)cs2)CC1 [compound 185] | + (“+” stands for 50-80% inhibition)
35 | O=C(O)c1cccc(O)c1C(=O)N1CCC(c2nc(C(=O)N3CCN(c4cccc(C(F)(F)F)c4)CC3)cs2)CC1 [compound 186] | + (“+” stands for 50-80% inhibition)
36 | O=C(O)c1cc(Cl)c(Cl)cc1C(=O)N1CCC(c2nc(C(=O)N3CCN(c4cccc(C(F)(F)F)c4)CC3)cs2)CC1 [compound 187] | + (“+” stands for 50-80% inhibition)
37 | O=C(O)C1=C(C(=O)N2CCC(c3nc(C(=O)N4CCN(c5cccc(C(F)(F)F)c5)CC4)cs3)CC2)CCC1 [compound 188] | + (“+” stands for 50-80% inhibition)
38 | O=C(O)C1CCCCC1C(=O)N1CCC(c2nc(C(=O)N3CCN(c4cccc(C(F)(F)F)c4)CC3)cs2)CC1 (stereo not shown) [compound 189] | + (“+” stands for 50-80% inhibition)
39 | O=C(O)C1=C(C(=O)N2CCC(c3nc(C(=O)N4CCN(c5cccc(C(F)(F)F)c5)CC4)cs3)CC2)CCCC1 [compound 190] | + (“+” stands for 50-80% inhibition)
40 | O=C(O)C=CC(=O)N1CCC(c2nc(C(=O)N3CCN(c4cccc(C(F)(F)F)c4)CC3)cs2)CC1 [compound 191] | + (“+” stands for 50-80% inhibition)
41 | Cc1noc(C)c1S(=O)(=O)N1CCC(c2nc(C(=O)N3CCN(c4cccc(C(F)(F)F)c4)CC3)cs2)CC1 [compound 192] | + (“+” stands for 50-80% inhibition)
42 | O=C(c1csc(C2CCN(S(=O)(=O)c3c(F)c(F)c(F)c(F)c3F)CC2)n1)N1CCN(c2cccc(C(F)(F)F)c2)CC1 [compound 193] | + (“+” stands for 50-80% inhibition)
43 | O=C(c1csc(C2CCN(S(=O)(=O)c3cccs3)CC2)n1)N1CCN(c2cccc(C(F)(F)F)c2)CC1 [compound 194] | + (“+” stands for 50-80% inhibition)
44 | O=C(c1csc(C2CCN(S(=O)(=O)c3ccc(F)cc3Cl)CC2)n1)N1CCN(c2cccc(C(F)(F)F)c2)CC1 [compound 195] | + (“+” stands for 50-80% inhibition)
45 | O=C(c1csc(C2CCN(S(=O)(=O)c3ccccc3Br)CC2)n1)N1CCN(c2cccc(C(F)(F)F)c2)CC1 [compound 196] | + (“+” stands for 50-80% inhibition)
46 | O=C(c1csc(C2CCN(S(=O)(=O)c3c(Cl)nc4sccn34)CC2)n1)N1CCN(c2cccc(C(F)(F)F)c2)CC1 [compound 197] | + (“+” stands for 50-80% inhibition)
